Results: US11814643B2, “Enhanced sleeping beauty transposons, kits and methods of transposition” (Max-Delbrück-Centrum für Molekulare Medizin in der …, priority 2016, dated 2023)

Legend:
SB transposition = assay: Transposition assay with inhibition of cathepsin or HSP90; assay type: cell-based; conditions: cathepsin inhibition; E64D 20 μM vs control
Experimental: In order to monitor transcriptional changes activated by the transposase, a genome-wide transcriptional study was performed (HeLa, Affymetrix). […] While HSPA2, a variant of the heat shock protein HSP70, is a member of the stress response, cathepsins are lysosomal proteases and have a vital role in mammalian cellular turnover. […] In addition, by mitigating the cellular stress response induction of the apoptotic signalling is moderated and cell viability improved.
FIG. 6 A. Effect of E64D (an inhibitor of cathepsins, cystein proteases and calpain) on SB transposition. Transposition assay, (20 μM, right side; control, left side). RNAi approach against cathepsin(s) is expected to yield a similar improvement. B. Differential expression of host genes in the presence oft the transposase (HeLa, Affymetrix). […] Cathepsins (CTs) degrade polypeptides and are distinguished by substrate specificities (CTSH, CTSF, CTS2).

HeLa cells = assay: Transposition assay of neo-marked mutated transposon constructs; assay type: cell-based
Text: FIG. 4 Enhanced binding affinity at the inner DR improves Sleeping Beauty transposition. On the left, schematics of various neo-marked, mutated transposon constructs are depicted. On the right, the respective transpositional activities are shown in comparison to wild type transposon (construct 1), set as 100%. A. Composite DRs were created by changing either the PAI (black box) or the RED (grey box) recognition motifs into a high-affinity binding site (CAST-5) selected by the CASTing experiment (marked by stars at the PAI and stripped at the RED recognition motifs). B. The CAST-5 sequence (SEQ ID NO: 24 or 25) was used to replace only the PAI recognition motif, while the rest of the DR was wild type.
Altering the affinity of the binding sites might challenge the ordered assembly process occurring during transposition of a SB transposon. Thus, a series of transposon versions were constructed where 12DR and/or 14DR motifs were replaced by CASTing selected, high affinity binding sites (FIG. 4A), and the various constructs were subjected to transposition assays. […] Alternatively, the negative effect of CAST-5 on transposition could, at least partially, be accounted to its preferential selection for PAI binding, while compromising its RED function. Indeed, the CAST sequences are predicted to be sub-optimal for RED interaction, including the ability to distinguish between inner vs outer positions (FIG. 2). To distinguish between the two scenarios, we generated CAST-5/wt hybrids, where CAST-5 was replacing PAI only, otherwise kept the DRs wild type (wt). Again, we tested the impact of the hybrid motifs on transposition in various combinations. […]
HeLa cells were grown in DMEM (GIBCO BRL, Germany) supplemented with 10% Fecal Calf Serum Gold (FCS Gold) (PAA, Germany) and 1% antimycotic antibiotic (Invitrogen, Germany). […] After 3 weeks of selection, colonies were stained and counted as described in Ivics et al., Cell 1997. […]

Row | Compound | effect on SB transposition (SB transposition) | transpositional activity in comparison to wild type transposon (set as 100%) (HeLa cells; 12DRs replaced by CAST-5 motif) [%] | transpositional activity in comparison to wild type transposon (set as 100%) (HeLa cells; 14DRs replaced by CAST-5 motif) [%] | transpositional activity in comparison to wild type transposon (set as 100%) (HeLa cells; all the four DRs changed to CAST-5) [%]
1 | CCOC(=O)[C@H]1O[C@@H]1C(=O)N[C@@H](CC(C)C)C(=O)NCCC(C)C [E64D] | improvement | – | – | –
2 | CAST-5: high-affinity SB transposase binding site selected by CASTing; 12DR SEQ ID NO: 24, 14DR SEQ ID NO: 25 (chain 1 GTGACGACCCCAAGTGTACATACACGCGCC; chain 2 GTGACGACCCCAAGTGTACATACACGCGCC; listed as DNA, chemistry not fully specified) | – | 65 | 3 | 2.2
